Measured values as given in patent US20060069045A1, “Methods for treating familial dysautonomia” (priority 2004, published 2006).

Key:
Assay type in all cases: cell-based, human
[1] = system: IKAP transcript; assay: real-time RT-PCR analysis of IKAP RNA levels (exon 20-containing, exon 20-lacking) in treated cells; conditions: for level of the wild-type of IKAP transcript: GM04663 cells, 24 h, each agent by itself (5 ug/ml EGCG; 6.25 ug/ml δ-tocotrienol)
Protocol: (§1) In order to identify agents that could modulate the level of the wild type IKAP transcript produced in FD-derived cells, either by increasing transcription or modulating splicing, FD-derived fibroblast cells (GM04663) were treated with EGCG. RNA was isolated from GM04663 cells treated for 24 h with varying concentrations of EGCG was subjected to real-time RT-PCR analysis using a pair of primers that recognize both of the hnRNP A2/B1 transcripts. More specifically, FD-derived fibroblast cells, seeded in 96-well plates were treated in triplicate for approximately 24 h unless noted otherwise. After treatment, the cells were washed once with PBS and then lysed in 50 μl Cell-to-cDNA lysis buffer (Ambion) at 75° C. for 12 min. After one freeze-thaw cycle, 4 μl of lysate was used in 20 μl RT-PCR. The Quantitect SYBR Green RT-PCR Kit (Qiagen) was used for real-time RT-PR analysis of the relative quantities of the exon 20-containing transcript (wild-type), the exon 20-lacking transcript (mutant), and exon 34-35 containing transcript that is unaffected by the FD-causing mutation (total), as well as the hnRNP A2/B1 and hnRNP A1 transcripts.
The primers used for these analyses were as follows: for the exon 20-containing transcript, 5′-AGTTGTTCATCATCGAGC-3′ (SEQ ID NO: 3) and 5′-[…]-3′ (SEQ ID NO: 4); for exon 20-lacking transcript, 5′-[…]-3′ (SEQ ID NO: 5) and 5′-[…]-3′ (SEQ ID NO: 6); for exon […] containing transcript, 5′-GAGATCATCCAAGAATCGC-3′ (SEQ ID NO: 7) and 5′-GGTAGCTGAATTCTGCTG-3′ (SEQ ID NO: 8); for hnRNP A2/B1 transcript, 5′-GAGTTGTTTCTCGAGCAG-3′ (SEQ ID NO: 9) and 5′-TGATCTTTTGCTTGCAGG-3′ (SEQ ID NO: 10); and for hnRNP A1 transcript, 5′-[…]-3′ (SEQ ID NO: 11) and 5′-[…]-3′ (SEQ ID NO: 12). Primers were used at a concentration of 0.5 μM. An ABI PRISM 7000 Sequence Detection System (Applied Biosystems), programmed as follows, was used to perform the real-time RT-PCR and analysis: 50° C.×30 min and 95° C.×15 min for one cycle, followed by 40 cycles of 94° C.×15 s, 57-60° C.×30 s, and 72° C.×30 s. To present relative amounts of PCR product obtained, results are expressed as changes in the threshold cycle (ΔCT) compared to untreated cells. The threshold cycle refers to the PCR cycle at which the fluorescence of the PCR is increased to a calculated level above background. A change of 1.0 in CT, assuming 100% PCR efficiency, would reflect a twofold change in the starting amount of the RNA template that was amplified.
To control for the amount of RNA present in the samples, RT-PCR amplification of ribosomal 18S RNA was performed on all cell lysates. […] For this analysis, TaqMan Ribosomal RNA Control Reagents were used with the TaqMan EZ RT-PCR Kit (Applied Biosystems) as per the manufacturer's protocol.
(§2) To determine the effect of EGCG on the cellular level of the exon 20-containing (wild type) IKAP mRNA, FD-derived and normal fibroblasts were treated with 50 μg/ml EGCG for varying lengths of time. The levels of hnRNP A2/B1, hnRNP A1, IKAP exon 20-containing (wild type), IKAP exon 20-lacking (mutant), and IKAP exon 34-35-containing (total) transcripts were determined (FIG. 3).

[2] = system: IKAP; assay: Western blot analysis of full-length IKAP in treated FD-derived cells; conditions: FD-derived GM00850 and GM04663 fibroblasts, 24 h, 50 μg/ml EGCG
Description: (§3) The GM00850 and GM04663 cell lines, homozygous for the IVS20^+6T→C FD-causing mutation, and the GM02912 cell line, derived from an unaffected individual, were obtained from the NIGMS Human Genetic Mutant Cell Repository. LA1-55n cells were provided by Dr. Robert A. Ross. EGCG and δ-tocotrienol were purchased from Calbiochem. A monoclonal antibody generated against a peptide encoded by exons 23-28 of IKBKAP was purchased from BD Biosciences. The 4B10 and DP3B3 monoclonal antibodies, which recognize hnRNP A1 and hnRNP A2/B1, respectively, were provided by Dr. Gideon Dreyfuss.
(§4) GM00850 and GM04663 cells treated for 24 h with 50 μg/ml of EGCG were washed twice with PBS and lysed in 0.5 M Tris-HCl, pH 6.8, containing 1.4% SDS. Western blot analysis was performed essentially as described by Rubin et al. (Proc. Natl. Acad. Sci. USA 82: 6637-41 (1985)). Equal amounts of protein fractionated on a 7% NuPAGE Tris-Acetate Gel (Invitrogen) were blotted onto nitrocellulose (Bio-Rad) and probed overnight with a monoclonal antibody (BD Biosciences) to IKAP that is directed against the carboxyl end (exons 23-28) of IKAP and therefore recognizes the full-length protein. The blot was then washed and probed with a goat anti-mouse antibody conjugated to alkaline phosphatase (Promega), followed by detection with Western Blue Substrate solution (Promega). […]

[3] = system: hnRNP A2/B1 transcript; assay: real-time RT-PCR analysis of hnRNP A2/B1 transcripts in EGCG-treated cells
Description: as §3
as §1, with “transcripts. […]” for “transcripts. More specifically, FD-derived fibroblast cells, seeded in 96-well plates were treated in triplicate for approximately 24 h unless noted otherwise. After treatment, the cells were washed once with PBS and then lysed in 50 μl Cell-to-cDNA lysis buffer (Ambion) at 75° C. for 12 min. After one freeze-thaw cycle, 4 μl of lysate was used in 20 μl RT-PCR.”, “transcripts. […]” for “transcripts.”

[4] = system: hnRNP A2/B1; assay: Western blot analysis of hnRNP A2/B1 in EGCG-treated cells; conditions: GM00850 and GM04663 cells, 24 h, 50 μg/ml EGCG
Description: as §3, §4

[5] = system: hnRNP A1 transcript; assay: real-time RT-PCR analysis of hnRNP A1 transcript in EGCG-treated cells; conditions: FD-derived and normal fibroblasts, 50 μg/ml EGCG, varying lengths of time
Protocol: as §1, with “noted otherwise. […] The Quantitect” for “noted otherwise. After treatment, the cells were washed once with PBS and then lysed in 50 μl Cell-to-cDNA lysis buffer (Ambion) at 75° C. for 12 min. After one freeze-thaw cycle, 4 μl of lysate was used in 20 μl RT-PCR. The Quantitect”, “A1 transcripts. […]” for “A1 transcripts.”
as §2

[6] = system: hnRNP A1; assay: Western blot analysis of hnRNP A1 in EGCG-treated cells; conditions: GM00850 and GM04663 cells, 24 h, 50 μg/ml EGCG
Description: as §3, §4

[7] = system: IKAP transcript; assay: RT-PCR with primers in exons 19 and 23, agarose gel, of wild-type and mutant IKAP transcripts; conditions: 24 h, 50 μg/ml EGCG
Protocol: The effect of EGCG treatment was further monitored by RT-PCR analysis using primers located in exons 19 and 23 capable of amplifying both the normal and mutant forms of the IKAP transcript. 4 μl of cell lysates produced as described above was used in 20 μl RT-PCR using the One Step RT-PCR Kit (Qiagen) with the following primers which recognize sequences in exons 19 and 23 of IKBKAP: 5′-GCAGCAATCATGTGTCCCA-3′ (SEQ ID NO: 1) and 5′-TAGCATCGCAGACAAGGTC-3′ (SEQ ID NO: 2). The RT-PCR was carried out as follows: one cycle of 50° C.×30 min and 95° C.×15 min, followed by 41 cycles of 94° C.×20 s, 60° C.×30 s and 72° C.×15 s, and then a final extension of 72° C.×2 min. PCR products were analyzed on a 2% agarose gel.

CC(C)=CCC/C(C)=C/CC/C(C)=C/CC[C@]1(C)CCc2cc(O)cc(C)c2O1 [8-tocotrienol, δ-tocotrienol, reference compound]
level of the wild-type of IKAP transcript [1]: did not result in a significant elevation

O=C(O[C@@H]1Cc2c(O)cc(O)cc2O[C@@H]1c1cc(O)c(O)c(O)c1)c1cc(O)c(O)c(O)c1 [EGCG, epigallocatechin gallate]
amount of IKAP (full-length protein, Western blot) [2]: clear increase
level of the hnRNP A2/B1 transcript ([3]; FD-derived GM04663 cells, 24 h, varying concentrations of EGCG): clear concentration-dependent decrease
level of the hnRNP A2/B1 transcript ([3]; FD-derived and normal fibroblasts, 50 μg/ml EGCG, varying lengths of time): time-dependent reduction
level of hnRNP A2/B1 (Western blot) [4]: suppress the level
level of the hnRNP A1 transcript [5]: no effect
hnRNP A1 levels (Western blot) [6]: unaffected
level of the exon 20-lacking transcript ([1]; 50 μg/ml EGCG, varying lengths of time): not affected
exon 20-containing IKAP transcript ([1]; FD-derived cells, 50 μg/ml EGCG, varying lengths of time): elevated
level of the wild-type of IKAP transcript [1]: did not result in a significant elevation
exon 20-containing IKAP transcript ([1]; normal cells (GM02912), 50 μg/ml EGCG, varying lengths of time): failed to exhibit an increase
exon 20-containing transcript (RT-PCR, exons 19-23, gel) ([7]; FD-derived cells): clear enhanced presence
exon 20-containing transcript (RT-PCR, exons 19-23, gel) ([7]; normal cells): no effect
